Measurements from US9034398B2, “Traditional Chinese drug comprising Danshen extracts and Sanqi extracts and use thereof” (TASLY Pharmaceutical Group Co., LTD., priority 2009, dated 2015).

Legend:
Type in all cases: in vivo
rat myocardial I/R model [1] = assay: FITC-labeled plasma albumin leakage from the venules of heart coronary vessels; details: 5 mg/kg BW/h intravenous drip, 60 min after reperfusion; for FITC-labeled albumin leakage from the venules of the coronary vessels (images): FIG. 3A; for inhibitory effect on FITC-labeled albumin leakage (ratio of fluorescence intensity outside to inside the venules): FIG. 3B
Description: The rats were anesthetized by intramuscularly injecting 20 wt % urethane (1.25 g/kg) and fixed in the supine position. Neck skin was incised and anterior cervical muscles were separated to expose the trachea. Tracheal intubation was performed. Another end of the intubation was attached to a Small Animal Ventilator (ALC-V8, Shanghai Aoteshai Biology Science and Technology Limited Company, Shanghai, China) so as to carry out pressure breathing under the following conditions: a respiratory ratio of 1:1, a respiratory frequency of 75 times/min and a tidal volume of 12 mL/kg. The rectal temperature, measured with YSI REF 401 (Yellow Spring, Ohio, USA), was maintained at 37 37.5° C. by using a thermal blanket. The chest was sterilized and opened at the intercostal space between 2nd 4th ribs near the left and right sternal border to expose the heart. The 3⁄8 curved needle threaded with 3-0 suture was used to pass through the site at 1 2 mm below the juncture of the pulmonary artery cone and the left atrial appendage. The suture was ligated. A polyethylene tubule was placed between the silk suture and myocardial tissue, the silk suture was […] to cause ischemia. Ligature was released 30 min later to establish an I/R model. Danshensu+I/R group (DLA+I/R group): a Danshensu aqueous solution (in normal saline, 1.25 mg/ml) was administrated at a dosage of 5 mg/kg BW/h by intravenous drip 20 min before the experiment and continued until the end of the entire experiment. Notoginsenoside R1+I/R group (R1+I/R group): a Notoginsenoside R1 aqueous solution (in normal saline, 1.25 mg/ml) was administrated at a dosage of 5 mg/kg BW/h by intravenous drip 20 min before the experiment and continued until the end of the entire experiment. Danshensu:R1(4:1)+I/R group (DR(4:1)+I/R group): an aqueous solution of Danshensu and Notoginsenoside R1 at a weight ratio of 4:1, dissolved in normal saline (1.25 mg/ml, namely, in the solution, the concentration of Danshensu is 1 mg/ml and the concentration of Notoginsenoside R1 is 0.25 mg/ml), was administrated at a dosage of 5 mg/kg BW/h (namely, in the total dosage, the dosage of Danshensu is 4 mg/kg BW/h and the dosage of Notoginsenoside R1 is 1 mg/kg BW/h) by intravenous drip 20 min before the experiment and continued until the end of the entire experiment. […] Under an upright fluorescence microscope (USS-301, Leica, US), fluorescence image of each group was recorded with SIT camera by using a light at 455 nm as an exciting light and a mercury lamp (100 W) as an emission source. FITC fluorescence intensities inside the venules and the adjacent extravascular interstitial substance were measured with Image-Pro Plus 5.0 software, respectively. […]

rat myocardial I/R model [2] = assay: Diameters of the venules of heart coronary vessels after myocardial I/R; details: 5 mg/kg BW/h intravenous drip; entire observation; FIG. 1
Description: The rats were anesthetized by intramuscularly injecting 20 wt % urethane (1.25 g/kg) and fixed in the supine position. Neck skin was incised and anterior cervical muscles were separated to expose the trachea. Tracheal intubation was performed. Another end of the intubation was attached to a Small Animal Ventilator (ALC-V8, Shanghai Aoteshai Biology Science and Technology Limited Company, Shanghai, China) so as to carry out pressure breathing under the following conditions: a respiratory ratio of 1:1, a respiratory frequency of 75 times/min and a tidal volume of 12 mL/kg. The rectal temperature, measured with YSI REF 401 (Yellow Spring, Ohio, USA), was maintained at 37 37.5° C. by using a thermal blanket. […] Heart coronary vessel microcirculation had been recorded by a CD video recorder ([…], US). […] The diameter of the venules and RBC velocity under a same visual field were recorded before ischemia, 30 min after ischemia, 30 min after reperfusion and 60 min after reperfusion. Recordings were replayed at 25 frames·s^-1, diameters of the arterioles and the venules as well as RBC velocities were measured with Image-Pro Plus 5.0 software. RBC velocities in the rat's heart arterioles and venules were expressed as “mm/s”, and the diameters of the rat's heart arterioles and venules were expressed as “μm”.

rat myocardial I/R model [3] = assay: RBC velocity in the venules of heart coronary vessels after myocardial I/R; details: for inhibitory effect on the decreased RBC velocity in the venules caused by I/R: from 30 min after reperfusion
Description: The rats were anesthetized by intramuscularly injecting 20 wt % urethane (1.25 g/kg) and fixed in the supine position. Neck skin was incised and anterior cervical muscles were separated to expose the trachea. Tracheal intubation was performed. Another end of the intubation was attached to a Small Animal Ventilator (ALC-V8, Shanghai Aoteshai Biology Science and Technology Limited Company, Shanghai, China) so as to carry out pressure breathing under the following conditions: a respiratory ratio of 1:1, a respiratory frequency of 75 times/min and a tidal volume of 12 mL/kg. The rectal temperature, measured with YSI REF 401 (Yellow Spring, Ohio, USA), was maintained at 37 37.5° C. by using a thermal blanket. The chest was sterilized and opened at the intercostal space between 2nd 4th ribs near the left and right sternal border to expose the heart. The 3⁄8 curved needle threaded with 3-0 suture was used to pass through the site at 1 2 mm below the juncture of the pulmonary artery cone and the left atrial appendage. The suture was ligated. A polyethylene tubule was placed between the silk suture and myocardial tissue, the silk suture was […] to cause ischemia. Ligature was released 30 min later to establish an I/R model. Danshensu+I/R group (DLA+I/R group): a Danshensu aqueous solution (in normal saline, 1.25 mg/ml) was administrated at a dosage of 5 mg/kg BW/h by intravenous drip 20 min before the experiment and continued until the end of the entire experiment. Notoginsenoside R1+I/R group (R1+I/R group): a Notoginsenoside R1 aqueous solution (in normal saline, 1.25 mg/ml) was administrated at a dosage of 5 mg/kg BW/h by intravenous drip 20 min before the experiment and continued until the end of the entire experiment. […] Heart coronary vessel microcirculation had been recorded by a CD video recorder ([…], US). […] The diameter of the venules and RBC velocity under a same visual field were recorded before ischemia, 30 min after ischemia, 30 min after reperfusion and 60 min after reperfusion. Recordings were replayed at 25 frames·s^-1, diameters of the arterioles and the venules as well as RBC velocities were measured with Image-Pro Plus 5.0 software. RBC velocities in the rat's heart arterioles and venules were expressed as “mm/s”, and the diameters of the rat's heart arterioles and venules were expressed as “μm”.

[4] = 5 mg/kg BW/h intravenous drip, FIG. 2

| Compound | FITC-labeled albumin leakage from the venules of the coronary vessels (images) (rat myocardial I/R model [1]) | inhibitory effect on FITC-labeled albumin leakage (ratio of fluorescence intensity outside to inside the venules) (rat myocardial I/R model [1]) | change in the diameters of the venules of the heart coronary vessels (rat myocardial I/R model [2]) | inhibitory effect on the decreased RBC velocity in the venules caused by I/R (rat myocardial I/R model [3]; [4]) | course of the inhibitory effect on decreased RBC velocity (rat myocardial I/R model [3]; 5 mg/kg BW/h intravenous drip, until 60 min after reperfusion, FIG. 2) | amelioration of RBC velocity in the venules of the heart coronary vessels caused by I/R (summary) (rat myocardial I/R model [3]; rats, summary statement of the description) |
| --- | --- | --- | --- | --- | --- | --- |
| O=C(O)C(O)Cc1ccc(O)c(O)c1 (stereo not shown) [Danshensu, (3,4-dihydroxyphenyl)lactic acid] | can also be observed | Significant inhibitory effect on FITC-labeled albumin leakage has not been observed | no significant change | significantly inhibitory effect | does not further improved | transiently ameliorate |
| CC(C)=CCC[C@](C)(O[C@@H]1O[C@H](CO)[C@@H](O)[C@H](O)[C@H]1O)[C@H]1CC[C@]2(C)[C@@H]1[C@H](O)C[C@@H]1[C@@]3(C)CC[C@H](O)C(C)(C)[C@@H]3[C@@H](O[C@@H]3O[C@H](CO)[C@@H](O)[C@H](O)[C@H]3O[C@@H]3OC[C@@H](O)[C@H](O)[C@H]3O)C[C@]12C [Notoginsenoside R1] | can also be observed | Significant inhibitory effect on FITC-labeled albumin leakage has not been observed | no significant change | does not display a significantly inhibitory effect |  |  |
